Experiment [1] concerns the target T1, Peptidyl-prolyl cis-trans isomerase A (Homo sapiens, UniProt P62937). Description: Binding affinity to human cyclophilin A by intrinsic tryptophan fluorescence.
Target sequence in this assay (P62937 whole entry): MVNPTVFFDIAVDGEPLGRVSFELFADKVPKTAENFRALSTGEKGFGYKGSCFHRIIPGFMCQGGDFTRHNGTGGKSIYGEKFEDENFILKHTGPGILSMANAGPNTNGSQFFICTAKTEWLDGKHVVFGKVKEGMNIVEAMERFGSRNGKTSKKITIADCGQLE
Experiment [2] has as its target T1, Peptidyl-prolyl cis-trans isomerase A. Description: Binding affinity to human cyclophilin A assessed as compound-enzyme complex formation at 1:1 protein to compound ratio by NMR analysis.
Target sequence in this assay (P62937 whole entry, looked up): as the sequence (P62937 whole entry) above

`C/C=C/C[C@@H](C)[C@@H](O)[C@H]1C(=O)N[C@@H](CC)C(=O)N(C)CC(=O)N(C)[C@@H](C(C)C)C(=O)N[C@@H](C(C)C)C(=O)N(C)[C@@H](CC(C)C)C(=O)N[C@@H](C)C(=O)N[C@H](C)C(=O)N(C)[C@@H](CC(C)C)C(=O)N(C)[C@@H](CC(C)C)C(=O)N(C)[C@@H](C(C)C)C(=O)N1C` displayed a Kd in experiment [1] of 11 nM.
`C/C=C/C[C@@H](C)[C@@H](O)[C@H]1C(=O)N[C@@H](CC)C(=O)N(C)CC(=O)N(C)[C@@H](CC(C)C)C(=O)N[C@@H](C(C)C)C(=O)N(C)[C@@H](CC(C)C)C(=O)N[C@@H](C)C(=O)N[C@H](C)C(=O)N(C)[C@@H](CC(C)C)C(=O)N(C)[C@@H](C(C)C)C(=O)N(C)[C@@H](C(C)C)C(=O)N1C`: in experiment [2], the Activity amounted to 53%.
For `C/C=C/C[C@@H](C)[C@@H](O)[C@H]1C(=O)N[C@@H](CC)C(=O)N(C)[C@H](C)C(=O)N(CC)[C@@H](C(C)C)C(=O)N[C@@H](C(C)C)C(=O)N(C)[C@@H](CC(C)C)C(=O)N[C@@H](C)C(=O)N[C@H](C)C(=O)N(C)[C@@H](CC(C)C)C(=O)N(C)[C@@H](CC(C)C)C(=O)N(C)[C@@H](C(C)C)C(=O)N1C` [ALISPORIVIR], the Activity in experiment [2] turned out to be 59%. This compound returned a Kd in experiment [1] of 11 nM.

As usually defined, the Kd is the free concentration of one partner at which half of the binding sites on the other are occupied at equilibrium, for simple one-to-one binding. The low end stands for higher affinity, the high end for lower affinity.

These data come from ChEMBL document CHEMBL2216755, “Ranking high affinity ligands of low solubility by NMR spectroscopy” (ACS Med Chem Lett, 2011).
